From patent publication US12624004B2 (Fudan University, priority 2019, dated 2026)

Test system: Female mice
Assay: In vivo hot plate method analgesia test
Outline: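 Female mice (~20 g) on a 55° C hot plate, hindpaw response latency as pain threshold (pre-screen 5–30 s, 60 s cut-off). Latencies at 15, 30, 60 and 120 min after intraperitoneal dosing. %MPE = (post−pre latency)/(60−pre)×100, ED50 derived from %MPE.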

## COc1cccc(C2(O)CCCCC2CN(C)C)c1 (stereo not shown) [Tramadol, reference compound]
Table 1-2, hot plate, 5 mg/kg dose
  analgesic effect: no analgesic effect
Table 1-2, hot plate, 50 mg/kg dose
  Maximum percentage effective analgesic (% MPE): 64.5%
Table 2-2, hot plate, at 5 mg/kg or 50 mg/kg dose
  analgesic effect: no analgesic effect
Table 2-2, hot plate, tramadol, dose of this value not clearly printed
  % MPE: 64.5%
Table 3-2, hot plate, @10 mg/kg
  analgesic effect: no effective
Table 3-2, hot plate, @50 mg/kg
  % MPE: 64.5%
Table 4-2, hot plate, 10 mg/kg dose
  analgesic effect: no analgesic effect
Table 4-2, hot plate, 50 mg/kg dose
  % MPE: 64.5%
Table 5-2, hot plate, 10 mg/kg dose
  analgesic effect: no analgesic effect
Table 5-2, hot plate, 50 mg/kg dose
  Maximum percentage effective analgesia (% MPE): 64.5%
